Consider five molecules from US20230339945A1, “METHOD FOR PREPARING A CHELATING LIGAND DERIVED FROM PCTA” (GUERBET, priority 2020, published 2023).

For data set [1] the following is noted: formation of the gadolinium complex; as described in WO 2014/174120, DOTA-Gd for comparison; cited from earlier work.
Data set [2] in a line: decomplexation kinetics (kinetic inertia) in acidic aqueous solution, pH 1.2, 37° C. The data set is classed as physicochemical. As to conditions: same conditions (pH 1.2, 37° C.); linear gadolinium complexes. As to the method: What is more, iso4 is the group of isomers which has the best kinetic inertia (also known as the kinetic stability) among the four groups isolated by the inventors. Specifically, the inventors evaluated the kinetic inertia of the four groups of isomers by studying their decomplexation kinetics in acidic aqueous solution (pH=1.2), at 37° C. The half-life time values (T1/2) which were determined for each of the groups of isomers are indicated in table 1 below, the half-life time corresponding to the time after which 50% of the amount of complex initially present has been dissociated, according to the following decomplexation reaction (equation 2): […]

Data set [3] can be described thus: formulation tests (concentrations of trometamol and of free ligand). The data set is classed as physicochemical. As to the method: Various concentrations of trometamol from 0 to 100 mM were tested.
Various concentrations of macrocyclic ligand of formula (L) from 0 to 2.5 mM were tested.

Consider `O=C([O-])CN1CCN(CC(=O)[O-])CCN(CC(=O)O)CCN(CC(=O)[O-])CC1.[Gd+3]` [DOTA-Gd, gadolinium complex of 1,4,7,10-tetraazacyclododecane-N,N′,N″,N′″-tetraacetic acid], for which the “log (Ktherm), stability constant” value in data set [1] was 25.6.

For `CNC(=O)CN(CCN(CCN(CC(=O)[O-])CC(=O)NC)CC(=O)[O-])CC(=O)[O-].[Gd+3]` [gadodiamide], the “kinetic inertia, dissociation in words” value in data set [2] is listed as “dissociate instantaneously”.

In the case of `O=C([O-])CN(CCN(CC(=O)[O-])CC(=O)[O-])CCN(CC(=O)[O-])CC(=O)[O-].[Gd+3]` [gadopentetate], the “kinetic inertia, dissociation in words” value in data set [2] is given as “dissociate instantaneously”.

In the case of `O=C(CCC(C(=O)O)N1CCN(C(CCC(=O)NCC(O)CO)C(=O)O)Cc2cccc(n2)CN(C(CCC(=O)NCC(O)CO)C(=O)O)CC1)NCC(O)CO` (centres unmarked) [macrocyclic ligand of formula (L)], the “release of free Gd during the process and during the lifetime of the product” value in data set [3] (content of 1 mM (0.08% m/v or 0.2 mol/mol %), 0 to 2.5 mM tested) is given as “absence of release of free Gd”.

`NC(CO)(CO)CO` [trometamol, Tris(hydroxymethyl)aminomethane]: the “pH stability of the formulation” value in data set [3] (content of 10 mM (0.12% w/v), 0 to 100 mM tested) is listed as “sufficient to ensure the pH stability of the formulation”.
